Laboratory results taken from patent US5780441A, “Sphingoglycolipid compounds and therapeutic uses thereof” (Kirin Beer Kabushiki Kaisha, priority 1993, dated 1998).

Columns and labels:
B16 mouse melanoma cells = test: Tumor growth inhibition in mice subcutaneously inoculated with B16 mouse melanoma cells; format: in vivo, mouse (BDF1 female); details: 0.1 mg/kg i.v. days 1, 5, 9; maximum during 20 days
Description: ii) Anti-tumor effect of the compound according to the present invention on mice subcutaneously inoculated with B16 mouse melanoma cells.
Experiment was performed with BDF1 female mice (6 weeks) purchased from NIPPON SLC K.K., which were divided into groups consisting of 6 animals. […]. The subcutaneous tumor volumes [(length×width×height)/2] were measured on days 8, 12, 16 and 20 after implantation to determine the tumor growth inhibiting rate (TGIR) of each sample. TGIR was calculated from the following formula: […]
wherein C: tumor volume in the control group, and
T: tumor volume in the sample adminitered groups.
In this connection, Compounds 1-6 and 7-9 were tested in the same time, respectively.

lethally irradiated mice = test: Radioprotective effect: life-span prolongation of lethally irradiated mice; format: in vivo, mouse (BDF1 female); details: 0.1 mg/kg i.v. days 0, 4, 8, 9 Gy X-ray, groups of 10
Description: Life-span-prolonging effects of the present compounds on lethally irradiated mice.
Experiment was performed with BDF1 female mice (6 weeks old) purchased from NIPPON SLC K.K., which were divided into groups consisting of 10 animals. Mice were irradiated generally with 9 Gy of X-ray with an X-ray generating apparatus, Hitachi, MBR-1520R (radiation day: day 0). Samples at a dose of 0.1 mg/kg were administered into tail vein on days 0, 4 and 8 in order to observe the mortality of the animals for 40 days.
In the table, two experiments are separated by the broken line.

mouse bone marrow cells = test: In vitro mouse bone marrow cell-proliferation-promoting effect (3H-TdR uptake); format: cell-based, mouse (BDF1 female); details: 4 days; for Uptake of 3H-TdR (% of control), bone marrow cells: 5760 min; for activity at 0.1 µg/mL / activity at 0.01 µg/mL: Mus musculus, Bone marrow cell, 96 h, read-out: Uptake of 3H-TdR (% of control), bone marrow cells
Description: In vitro mouse bone marrow cell-proliferation-promoting effect of the present compound
Experiment was performed with BDF1 female mice (6 weeks old) purchased from NIPPON SLC K.K. Bone marrow cells were removed from the femoral bone of mice by the conventional manner, floated on 10% FCS RPMI 1640, layered over Lympholite M, and centrifuged to give a monocyte fraction. 1×10^6 cells/ml of the monocyte fraction was suspended in 10% FCS RPMI 1640. The cell suspension (100 μl/well) and a vehicle or sample (10 μl/well) which was prepared so as to have a final level shown in Table 2 were added into a wells of round-bottomed 96 well plate, and cultured under the condition of 5% CO2 at 37° C. for 4 days. 0.5 μCi/well of ^3 H-thymidine (^3 H-TdR) was added. After 6 hours, the cells were harvested, and the amount of ^3 H-TdR uptaken into nucleus was measured by a liquid scintillation counter. The ratio of the uptake of ^3 H-TdR in the sample group to that in the vehicle group was calculated and used as the activation rate for promoting in vitro mouse bone marrow cell growth.

mouse splenic lymphocyte = test: In vitro mouse splenic lymphocyte-proliferation-stimulating effect (3H-TdR uptake); format: cell-based, mouse (BDF1 female); details: 2 days; for Uptake of 3H-TdR (% of control), splenic lymphocytes: 2880 min
Description: i) In vitro mouse splenic lymphocyte growth promoting effects of the present compounds
Experiment was performed with BDF1 female mice (6 weeks old) purchased from NIPPON SLC K.K. Spleens were removed from mice, and spleen cells were brayed with slide glasses and hemolized with NH4 Cl. 2×10^6cells/ml of the spleen cells which had been hemolized were suspended in 10% FCS RPMI 1640. The cell suspension (100 μl/well) and a vehicle or sample (10 μl/well) which was prepared so as to have a final level shown in Table 3 were added into wells of a round-bottomed 96 well plate, and cultured under the condition of 5% CO2 at 37° C. for 2 days. 0.5 μCi/well of ^3 H-thymidine (^3 H-TdR) was added. After 6 hours, the cells were harvested, and the amount of ^3 H-TdR uptaken into nucleus was measured by a liquid scintillation counter. The ratio (%) of the uptake of ^3 H-TdR in the sample group to that in the vehicle group was calculated and used as the in vitro mouse splenic lymphocyte-proliferation-stimulating rate.

[1] = tested on: P388 mouse leukemia cells; test: Life-span-prolonging (anti-tumor) effect on mice subcutaneously inoculated with P388 mouse leukemia cells; format: in vivo, mouse (CDF1 female); details: 0.1 mg/kg i.v. on days 1, 5 and 9; for Survival days ave. ± s. d.: all marked ** (p < 0.01); for T/C (%) / response vs control in vivo at 0.1 mg/kg: survival vs vehicle; for response vs control in vivo at 0.1 mg/kg: Mus musculus, P388, iv, read-out: T/C (%)
Description: i) Anti-tumor effect of the compound of the present invention on mice subcutaneously inoculated with P388 mouse leukemia cells.
Experiment was performed with CDF1 female mice (6 weeks) purchased from NIPPON SLC K.K., which were divided into groups consisting of 5 animals. […]. In this connection, lentinan and picibanil were administered intravenously on days 1, 3, 5, 7 and 9 after implantation, and sizofilan was administered subcutaneously on days 1 through 9. Statistical analysis was performed according to the Mann-Whiteney test.

[2] = tested on: mixed lymphocyte culture reaction (spleen cells of C57BL/6 and BALB/C mice); test: Mixed lymphocyte culture reaction (MLR); format: cell-based, mouse (C57BL/6 stimulator, BALB/C responder); details: 42 hours; for MLR activating rate (%): 2520 min; for activity at 1 µg/mL / activity at 0.1 µg/mL: Mus musculus, Lymphocyte, read-out: MLR activating rate (%)
Description: ii) Mixed lymphocyte culture reaction (MLR) of the compounds of the present invention
Spleen cells were prepared from C57BL/6 mice and treated with 50 μg/ml of mitomycin C for 30 minutes. The treated cells were used as stimulator cells, and the spleen cells of BALB/C mice as responder cells. 2×10^6 cells/ml of the both spleen cells were suspended in 10% FCS RPMI1640 as a culture medium. The above-described cells (50 μl/well) and a sample (10 μl/well) were added into wells of a round-bottomed 96 well plate, and cultured under the condition of 5% CO2 at 37° C. for 42 hours. 0.5 μCi/well of ^3 H-thymidine (^3 H-TdR) was added. After 8 hours, the cells were harvested, and the amount of uptaken ^3 H-TdR was measured by a liquid scintillation counter to calculate the ratio (%) of the uptake of ^3 H-TdR in the sample group to that in the vehicle group as the MLR activating rate.

[3] = Mus musculus, Splenic lymphocyte, 48 h, 10^0 μg/ml, read-out: Uptake of 3H-TdR (% of control), splenic lymphocytes
[4] = Mus musculus, Splenic lymphocyte, 48 h, 10^-3 μg/ml, read-out: Uptake of 3H-TdR (% of control), splenic lymphocytes

Compound | Maximum tumor growth inhibiting rate, TGIR (%) (B16 mouse melanoma cells) | Number of surviving mice (lethally irradiated mice; day 10) [mice] | Uptake of 3H-TdR (% of control), bone marrow cells (mouse bone marrow cells; 10^-1 μg/ml) | Uptake of 3H-TdR (% of control), bone marrow cells (mouse bone marrow cells; 10^-2 μg/ml) | Uptake of 3H-TdR (% of control), splenic lymphocytes (mouse splenic lymphocyte; 10^0 μg/ml) | Uptake of 3H-TdR (% of control), splenic lymphocytes (mouse splenic lymphocyte; 10^-3 μg/ml) | Survival days ave. ± s. d. [1] [days] | T/C (%) [1] [%] | MLR activating rate (%) ([2]; 1 × 10^0 μg/ml) | MLR activating rate (%) ([2]; 1 × 10^-1 μg/ml) | activity at 0.1 µg/mL (mouse bone marrow cells; 10^-1 μg/ml) [%] | activity at 0.01 µg/mL (mouse bone marrow cells; 10^-2 μg/ml) [%] | activity at 1 µg/mL (mouse splenic lymphocyte; [3]) [%] | activity at 0.001 µg/mL (mouse splenic lymphocyte; [4]) [%] | response vs control in vivo at 0.1 mg/kg [1] [%] | activity at 1 µg/mL ([2]; 1 × 10^0 μg/ml) [%] | activity at 0.1 µg/mL ([2]; 1 × 10^-1 μg/ml) [%] | further results
CCCCCCCCCCCCCCCCCCCCCC[C@@H](O)C(=O)N[C@@H](CO[C@H]1O[C@H](CO)[C@H](O)[C@H](O[C@H]2O[C@H](CO)[C@H](O)[C@H](O)[C@H]2NC(C)=O)[C@H]1O[C@H]1O[C@H](CO)[C@@H](O)[C@H](O)[C@H]1O)[C@H](O)[C@H](O)CCCCCCCCCCCC(C)C [Compound 3, O-(N-acetyl-2-amino-2-deoxy-α-D-galactopyranosyl)-(1→3)-O-[α-D-glucopyranosyl-(1→2)]-O-α-D-galactopyranosyl-(1→1)-(2S,3S,4R)-2-amino-N-[(R)-2-hydroxytetracosanoyl]-16-methyl-1,3,4-heptadecanetriol] | 66.8 | 10 | 314 % of control | 138 % of control | 815 % of control | 258 % of control | 15.0 ± 0 | 117 | 210 | 138 |  |  |  |  |  |  |  | Number of surviving mice (lethally irradiated mice; day 15, 0.1 mg/kg): 6 mice; Number of surviving mice (lethally irradiated mice; day 20, 0.1 mg/kg): 5 mice; Number of surviving mice (lethally irradiated mice; day 25, 0.1 mg/kg): 5 mice; Number of surviving mice (lethally irradiated mice; day 30, 0.1 mg/kg): 5 mice; Number of surviving mice (lethally irradiated mice; day 35, 0.1 mg/kg): 5 mice; Number of surviving mice (lethally irradiated mice; day 40, 0.1 mg/kg): 5 mice; Uptake of 3H-TdR (% of control), splenic lymphocytes (mouse splenic lymphocyte; 10^-1 μg/ml): 704 % of control; Uptake of 3H-TdR (% of control), splenic lymphocytes (mouse splenic lymphocyte; 10^-2 μg/ml): 397 % of control
CCCCCCCCCCCCCCCCCCCCCC[C@@H](O)C(=O)N[C@@H](CO[C@H]1O[C@H](CO)[C@H](O)[C@H](O[C@H]2O[C@H](CO)[C@H](O)[C@H](O)[C@H]2NC(C)=O)[C@H]1O[C@H]1O[C@H](CO)[C@@H](O)[C@H](O)[C@H]1O)[C@H](O)[C@H](O)CCCCCCCCCCCCCC [Compound 8, O-(N-acetyl-2-amino-2-deoxy-α-D-galactopyranosyl)-(1→3)-O-[α-D-glucopyranosyl-(1→2)]-O-α-D-galactopyranosyl-(1→1)-(2S,3S,4R)-2-amino-N-[(R)-2-hydroxytetracosanoyl]-1,3,4-octadecanetriol] | 78.4 |  | 240 % of control | 167 % of control | 997 % of control | 609 % of control | 16.0 ± 0.7 | 125 | 286 | 232 |  |  |  |  |  |  |  | 
CCCCCCCCCCCCCCCCCCCCCC[C@@H](O)C(=O)N[C@@H](CO[C@H]1O[C@H](CO)[C@H](O)[C@H](O[C@H]2O[C@H](CO)[C@H](O)[C@H](O)[C@H]2NC(C)=O)[C@H]1O[C@H]1O[C@H](CO)[C@@H](O)[C@H](O)[C@H]1O)[C@H](O)[C@H](O)CCCCCCCCCCCC [Compound 1, O-(N-acetyl-2-amino-2-deoxy-α-D-galactopyranosyl)-(1→3)-O-[α-D-glucopyranosyl-(1→2)]-O-α-D-galactopyranosyl-(1→1)-(2S,3S,4R)-2-amino-N-[(R)-2-hydroxytetracosanoyl]-1,3,4-hexadecanetriol] |  | 10 |  |  |  |  | 15.3 ± 0.8 |  |  |  | 211 | 133 | 843 | 184 | 120 | 222 | 142 | Number of surviving mice (lethally irradiated mice; day 15): 9 mice; Number of surviving mice (lethally irradiated mice; day 20): 7 mice; Number of surviving mice (lethally irradiated mice; day 25): 6 mice; Number of surviving mice (lethally irradiated mice; day 30): 6 mice; Number of surviving mice (lethally irradiated mice; day 35): 6 mice; Number of surviving mice (lethally irradiated mice; day 40): 6 mice; activity at 0.1 µg/mL (mouse splenic lymphocyte; Mus musculus, Splenic lymphocyte, 48 h, 10^-1 μg/ml, read-out: Uptake of 3H-TdR (% of control), splenic lymphocytes): 738%; activity at 0.01 µg/mL (mouse splenic lymphocyte; Mus musculus, Splenic lymphocyte, 48 h, 10^-2 μg/ml, read-out: Uptake of 3H-TdR (% of control), splenic lymphocytes): 332%
CCCCCCCCCCCCCCCCCCCCCC[C@@H](O)C(=O)N[C@@H](CO[C@H]1O[C@H](CO)[C@H](O)[C@H](O[C@@H]2O[C@@H]([C@H](O)CO)[C@H](O)[C@H]2O)[C@H]1O)[C@H](O)[C@H](O)CCCCCCCCCCC(C)C [Compound 13, O-β-D-galactofuranosyl-(1→3)-O-α-D-galactopyranosyl-(1→1)-(2S,3S,4R)-2-amino-N-[(R)-2-hydroxytetracosanoyl]-15-methyl-1,3,4-hexadecanetriol] |  |  |  |  |  |  | 14.6 ± 0.5 |  |  |  | 546 | 395 | 788 | 227 | 114 | 276 | 248 | 
